{"source": "patent US9364476B2", "about": "“Methods of treating a Bruton's Tyrosine Kinase disease or disorder” (Celgene Avilomics Research, Inc., priority 2011, dated 2016)", "origin": "cited, not measured here", "key": {"Btk": {"biological_target": "Btk (Homo sapiens, UniProt Q06187)", "sequence (Q06187 whole entry, species assumed)": "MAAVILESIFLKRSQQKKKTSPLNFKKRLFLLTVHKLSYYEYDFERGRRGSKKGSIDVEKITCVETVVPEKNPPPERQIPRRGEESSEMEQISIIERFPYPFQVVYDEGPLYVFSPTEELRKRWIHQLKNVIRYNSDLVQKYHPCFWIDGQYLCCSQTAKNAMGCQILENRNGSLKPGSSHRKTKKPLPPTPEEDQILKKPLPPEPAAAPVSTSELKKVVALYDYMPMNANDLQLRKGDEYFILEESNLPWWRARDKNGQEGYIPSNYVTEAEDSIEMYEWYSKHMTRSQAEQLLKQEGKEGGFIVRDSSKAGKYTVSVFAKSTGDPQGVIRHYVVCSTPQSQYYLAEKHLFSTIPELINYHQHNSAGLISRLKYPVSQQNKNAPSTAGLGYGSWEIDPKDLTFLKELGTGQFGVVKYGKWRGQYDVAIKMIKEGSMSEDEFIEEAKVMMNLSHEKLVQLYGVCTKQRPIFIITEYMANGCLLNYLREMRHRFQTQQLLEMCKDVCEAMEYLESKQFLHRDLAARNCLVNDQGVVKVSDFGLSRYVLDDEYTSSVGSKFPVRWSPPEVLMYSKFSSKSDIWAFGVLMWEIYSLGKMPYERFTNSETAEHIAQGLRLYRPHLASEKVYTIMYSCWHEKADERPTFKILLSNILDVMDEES", "conditions": "enzymatic and cellular assays; cited from earlier work"}, "B-cell": {"system": "B-cell", "conditions": "cited from earlier work"}}}
{"smiles": "C=CC(=O)Nc1cccc(Nc2nc(Nc3ccc(OCCOC)cc3)ncc2F)c1", "note": "[Compound 1, N-(3-(5-fluoro-2-(4-(2-methoxyethoxy)phenylamino)pyrimidin-4-ylamino)phenyl)acrylamide]", "values": [{"measurement": "mode of BTK inhibition", "setting": "Btk", "value": "covalent, irreversible inhibition of BTK"}, {"measurement": "effect on B-cell proliferation and activation", "setting": "B-cell", "value": "inhibit B-cell proliferation and activation"}]}
